Results: PMC11478334, “Quaternized Curcumin Derivative—Synthesis, Physicochemical Characteristics, and Photocytotoxicity, Including Antibacterial Activity after Irradiation with Blue Light” (Molecules, 2024)
Values joined by “and” are separate entries in the source; they are usually repeats but may differ in a detail not shown here. Equal values may be shown once.

Columns and labels:
[1] = system: Escherichia coli ATCC 25922; experiment: In vitro photodynamic inactivation of planktonic cells, 470 nm LED; type: cell-based
Description: (§1) In the first experiment, the main goal was to determine whether the tested compounds were antimicrobially active with or without light. Two compounds (2 and 3) were tested in the visible range, and a 470 nm LED lamp was applied (Figure 11). Due to poor solubility and low absorption, curcumin was not included in the tests. A screening study was carried out on three strains: Gram-positive bacteria—Staphylococcus aureus NCTC 4163, Gram-negative bacteria—Escherichia coli ATCC 25922, and the yeast Candida albicans ATCC 10231. In the study, the irradiation lasted 30 min, and the lamp was placed 10 mm above the microtiter plate containing the bacterial suspensions and tested compounds at concentrations of 10 μM. The preincubation time (PIT) lasted 20 min, and the LED lamp emitted visible light (λmax 470 nm) with an irradiance of 16.67 mW/cm^2, which corresponds to a light dose (fluence) of 30.01 J/cm^2 after 30 min of exposure. The light exposure conditions (lamp distance, lamp power, and lamp type) were the same in all subsequent experiments. The light dose depended on the irradiation time. […] Compound 3 presented activity against both G+ (S. aureus) and G− (E. coli) bacteria. The light-induced antimicrobial activity against S. aureus and E.coli exceeded log reductions of 5.54 and 4.46, respectively. At these concentrations, not even a single colony was observed on the plates, as complete eradication occurred.
(§2) The second experiment was designed to determine the time and concentration required to achieve the biological effect observed in the first experiment and to extend the study to other strains (Figure 12). Apart from S. aureus and E. coli, the Gram-positive Streptococcus pyogenes ATCC 19615, which is the etiologic agent of tonsillitis, and the Gram-negative Pseudomonas aeruginosa NCTC 6749, which is a major threat to hospitalized and immunocompromised patients due to its high antibiotic resistance, were used. The observed effect was strictly concentration-dependent (Table 6). According to the results, Gram-positive bacteria appear to be the most susceptible to the applied photocytotoxicity study. […] For S. pyogenes, the results were even more pronounced, as the complete eradication under the influence of compound 3 at a concentration of 10 µM occurred after only 5 min of irradiation, while at a concentration of 1 µM, complete eradication occurred after 15 min of irradiation. Interesting results were also obtained for Gram-negative bacteria. […] A high level of eradication of P. aeruginosa in the presence of compound 3 (10 µM) was observed after only 5 min of irradiation (log reduction: 4.29). […] Reductions in microbial survival were still observed with a decrease in compound concentration, but complete eradication was not achieved within the irradiation time.
(§3) The microorganisms used in the study were (i) standard strains of bacteria: Staphylococcus aureus NCTC 4163, Escherichia coli ATCC 25922, Pseudomonas aeruginosa NCTC 6749, and Streptococcus […] ATCC 19615, and (ii) fungi: Candida albicans ATCC 10231. The standard strains were obtained from the National Collection of Type Cultures (NCTC, Salisbury, UK) and the American Type Culture Collection (ATCC, Manassas, VA, USA). Bacterial and yeast strains were stored in Microbank cryogenic vials (Pro-Lab Diagnostics, Richmond Hill, ON, Canada) at −70 °C ± 10 °C. The bacteria were cultured aerobically in brain–heart infusion (BHI) broth (OXOID, Basingstoke, UK) at 36 °C ± 1 °C for 20 h. C. albicans cultures were grown in Sabouraud dextrose broth (SDB, Merck, Steinheim, Germany) at 36 °C for 20 h.
(§4) The organisms were harvested by centrifugation (3000× g for 15 min) and resuspended in 1.5 mL of 10 mM PBS, pH, 7.0 (Sigma-Aldrich, St. Louis, MO, USA). The cells were then diluted 1/100 in PBS to a final concentration of about 10^7 colony-forming units (CFUs)/mL. […]

[2] = system: Staphylococcus aureus NCTC 4163; experiment: as above; type: cell-based
Description: as §1, §2, §3, §4

[3] = system: Candida albicans ATCC 10231; experiment: as above; type: cell-based; settings: 10 µM
Description: as §1
The microorganisms used in the study were (i) standard strains of bacteria: Staphylococcus aureus NCTC 4163, Escherichia coli ATCC 25922, Pseudomonas aeruginosa NCTC 6749, and Streptococcus […] ATCC 19615, and (ii) fungi: Candida albicans ATCC 10231. The standard strains were obtained from the National Collection of Type Cultures (NCTC, Salisbury, UK) and the American Type Culture Collection (ATCC, Manassas, VA, USA). […]
The organisms were harvested by centrifugation (3000× g for 15 min) and resuspended in 1.5 mL of 10 mM PBS, pH, 7.0 (Sigma-Aldrich, St. Louis, MO, USA). […] Viable microorganisms were measured by counting the number of colony-forming units (CFUs) after appropriate serial dilution and culture on tryptic soy agar plates (TSA, OXOID, Basingstoke, UK) or Columbia Blood Agar with Sheep Blood (CAS, OXOID, Basingstoke, UK) for bacteria and Sabouraud dextrose agar (SDA, Merck, Steinheim, Germany) for fungi, following incubation at 36 °C ± 1 °C for 24–72 h. The number of surviving organisms and the log10 reduction in microbial cells for each sample were calculated using a formula available in the literature.
(§5) Lamp type—LED λmax~470 nm (LIU470A LED Array Light Source; Thorlabs Inc., Bergkirchen, Germany); irradiance—16.67 mW/cm^2 (measured with PM16-130 Power Meter, Thorlabs Inc., Bergkirchen, Germany, and Optel Opole Sp. z o.o., Opole, Poland).

[4] = system: Pseudomonas aeruginosa NCTC 6749; experiment: as above; type: cell-based
Text: as §2, §3
(§6) The organisms were harvested by centrifugation (3000× g for 15 min) and resuspended in 1.5 mL of 10 mM PBS, pH, 7.0 (Sigma-Aldrich, St. Louis, MO, USA). The cells were then diluted 1/100 in PBS to a final concentration of about 10^7 colony-forming units (CFUs)/mL. Aliquots (100 μL) of a standardized microbial suspension were placed in the wells of microtiter plates, and an equal volume of a solution of the tested compound was added to give final concentrations of 1 × 10^−5 (10 µM) and 1 × 10^−6 M (1 µM) (groups P+). Negative control wells contained the bacterial or yeast suspension and PBS without the photosensitizer (groups P−). All the samples were incubated in the dark for 20 min and irradiated by the LED panel at a distance of 10 mm for a specific period, depending on the experiment (groups L+). To evaluate the antimicrobial activity of the tested compounds, duplicate experimental samples were prepared but not irradiated (groups L−). Viable microorganisms were measured by counting the number of colony-forming units (CFUs) after appropriate serial dilution and culture on tryptic soy agar plates (TSA, OXOID, Basingstoke, UK) or Columbia Blood Agar with Sheep Blood (CAS, OXOID, Basingstoke, UK) for bacteria and Sabouraud dextrose agar (SDA, Merck, Steinheim, Germany) for fungi, following incubation at 36 °C ± 1 °C for 24–72 h. The number of surviving organisms and the log10 reduction in microbial cells for each sample were calculated using a formula available in the literature.
as §5

[5] = system: Streptococcus pyogenes ATCC 19615; experiment: as above; type: cell-based; settings: for irradiation time to complete eradication: 470 nm LED
Text: as §2, §3, §6, §5

S. aureus = settings: 10 µM; 440 nm; 1.944 J/cm^2; 3.6 mW/cm^2; 8.8 min; cited from earlier work
[6] = L+P+, 10 µM, 470 nm, 30 min, 30.01 J/cm^2
[7] = L+P+, 470 nm, 30 min, 30.01 J/cm^2
[8] = 1 µM, 15 min irradiation 470 nm
[9] = 1 µM, 25 min irradiation 470 nm
[10] = 10 µM, 15 min irradiation 470 nm (15 J/cm^2)
[11] = 10 µM, 25 min irradiation 470 nm (25 J/cm^2)
[12] = 1 µM, 10 min irradiation 470 nm
[13] = 10 µM, 5 min irradiation 470 nm (5 J/cm^2)

## F[B-]1(F)OC(/C=C/c2ccc(OCCN3CCOCC3)cc2)=CC(/C=C/c2ccc(OCCN3CCOCC3)cc2)=[O+]1 [Compound 2]
[1]; L−P+ (no light), 10 µM
  Log10 reduction: 0.52 log
[2]; [6]
  Log10 reduction: 2.13 log
[2]; L−P+ (no light), 10 µM
  Log10 reduction: 0.05 log
[3]; [7]
  Log10 reduction: 0.01 log
[3]; L−P+ (no light)
  Log10 reduction: 0.04 log

## C[N+]1(CCOc2ccc(C=CC3=CC(C=Cc4ccc(OCC[N+]5(C)CCOCC5)cc4)=[O+][B-](F)(F)O3)cc2)CCOCC1 [Compound 3]
[1]; 1 µM, 5 min irradiation 470 nm
  Log Red.: 0.83 log
[1]; 1 µM, 470 nm LED
  biological activity after irradiation: no biological activity
[1]; [8]
  Log Red.: 1.57 log
[1]; [9]
  Log Red.: 1.82 log
[1]; 10 µM, 5 min irradiation 470 nm
  Log Red.: 1.15 log
[1]; [10]
  Log Red.: 3.08 log
[1]; [11]
  Log Red.: 4.53 log
[1]; [6]
  Log10 reduction: >4.46 log
[1]; L−P+ (no light), 10 µM
  Log10 reduction: 0.58 log
[2]; 1 µM, 5 min irradiation 470 nm
  Log Red.: −0.01 log
[2]; [12]
  Log Red.: 0.77 log
[2]; [8]
  Log Red.: 1.01 log
[2]; 1 µM, 20 min irradiation 470 nm
  Log Red.: 1.42 log
[2]; [13]
  Log Red.: 3.37 log
[2]; 10 µM, 470 nm LED
  irradiation time to complete eradication: 15 min
[2]; 10 µM, 10 min irradiation 470 nm
  Log Red.: 4.09 log
[2]; [10]
  Log Red.: >5.40 log and >5.4 log
[2]; [6]
  Log10 reduction: >5.54 log
[2]; L−P+ (no light), 10 µM
  Log10 reduction: −0.01 log
[3]; [7]
  Log10 reduction: −0.04 log
[3]; L−P+ (no light)
  Log10 reduction: −0.09 log
[4]; 1 µM, 5 min irradiation 470 nm
  Log Red.: 0.86 log
[4]; [8]
  Log Red.: 2.32 log
[4]; [9]
  Log Red.: 2.83 log
[4]; 1 µM, 30 min irradiation 470 nm (30 J/cm^2)
  Log Red.: 3.32 log
[4]; [13]
  Log Red.: 4.29 log
[4]; 10 µM, 15 min irradiation 470 nm
  Log Red.: 4.75 log
[4]; [11]
  Log Red.: >4.85 log
[5]; 1 µM, 5 min irradiation 470 nm (5 J/cm^2)
  Log Red.: 3.03 log
[5]; 1 µM
  irradiation time to complete eradication: 15 min
[5]; [12]
  Log Red.: 4.51 log
[5]; [8]
  Log Red.: >4.93 log
[5]; [13]
  Log Red.: >4.93 log
[5]; 10 µM
  irradiation time to complete eradication: 5 min

## Curcumin [reference compound]
S. aureus
  Efficiency (log reduction): 5.3 log
